In US6486191B2 (priority 1997, dated 2002):
Converted amounts (≈) assume the structure as drawn.

Assays:
[1] = system: larvae of the horseradish beetle (Phaedon cochleariae); assay: Phaedon larvae test; type: in vivo; conditions: cabbage leaves immersed, active substance concentration 0.1 % by weight
Procedure: (§1) Solvent: 7 parts by weight of dimethylformamide
(§2) Emulsifier: 1 part by weight of alkylaryl polyglycol ether
For the preparation of an expedient fonnulation of active substance, 1 part by weight of active substance is mixed with the stated amounts of solvent and emulsifier, and the concentrate is diluted to the desired concentration with water.
Cabbage leaves (Brassica oleracea) are treated by immersion in the formulation of active substance of the desired concentration and infested with larvae of the horseradish beetle (Phaedon cochleariae) as long as the leaves are still moist.
After the desired time, the kill in % is determined. 100% means that all beetle larvae were killed; 0% means that no beetle larvae were killed.

[2] = system: caterpillars of the diamondback moth (Plutella xylostella); assay: Plutella test; type: in vivo; conditions: cabbage leaves immersed, active substance concentration 0.1 % by weight
Procedure: as §1, §2
For the preparation of an expedient formulation of active substance, 1 part by weight of active substance is mixed with the stated amounts of solvent and emulsifier, and the concentrate is diluted to the desired concentration with water.
Cabbage leaves (Brassica oleracea) are treated by immersion in the formulation of active substance of the desired concentration and infested with caterpillars of the diamondback moth (Plutella xylostella) as long as the leaves are still moist.
After the desired time, the kill in % is determined. 100% means that all caterpillars were killed; 0% means that no caterpillars were killed.

[3] = system: Aspergillus niger; assay: Material protection test (MIC on malt extract agar); type: cell-based; conditions: 336 h, two weeks at 27° C., 60 to 70% relative humidity, read-out: Minimum inhibitory concentration (MIC value)
[4] = system: Chaetomium globosum; assay: as above; type: cell-based; conditions: 336 h, two weeks at 27° C., 60 to 70% relative humidity, read-out: Minimum inhibitory concentration (MIC value)
[5] = system: Penicillium brevicaule; assay: as above; type: cell-based; conditions: 336 h, two weeks at 27° C., 60 to 70% relative humidity, read-out: Minimum inhibitory concentration (MIC value)

| Compound | Kill in % after 7 d [1] | Kill in % after 7 d [2] | MIC [3] | MIC [4] | MIC [5] |
| --- | --- | --- | --- | --- | --- |
| Cc1ccc(S(=O)(=O)n2c(C#N)nc3cc4c(cc32)OC(F)(F)C(F)(F)O4)cc1[N+](=O)[O-] [drawing 67] | 100% | – | – | – | – |
| Cc1ccc([N+](=O)[O-])cc1S(=O)(=O)n1c(C#N)nc2cc3c(cc21)OC(F)(F)C(F)(F)O3 [drawing 68] | 100% | – | – | – | – |
| Cc1ccc(S(=O)(=O)n2c(C#N)nc3cc4c(cc32)OC(F)(F)C(F)(F)O4)cc1[N+](=O)[O-] [drawing 69] | – | 100% | – | – | – |
| Cc1ccc([N+](=O)[O-])cc1S(=O)(=O)n1c(C#N)nc2cc3c(cc21)OC(F)(F)C(F)(F)O3 [drawing 70] | – | 100% | – | – | – |
| Cc1ccc(S(=O)(=O)n2c(C#N)nc3cc4c(cc32)OC(F)(F)C(F)(F)O4)cc1[N+](=O)[O-] [Example 2] | – | – | 200 µg/mL (≈ 423 µM) | 100 µg/mL (≈ 212 µM) | 100 µg/mL (≈ 212 µM) |
| Cc1ccc([N+](=O)[O-])cc1S(=O)(=O)n1c(C#N)nc2cc3c(cc21)OC(F)(F)C(F)(F)O3 [Example 5] | – | – | 200 µg/mL (≈ 423 µM) | 100 µg/mL (≈ 212 µM) | 100 µg/mL (≈ 212 µM) |
